Reference: patent US11339144B2 (Navitor Pharmaceuticals, Inc., priority 2017, dated 2022)
Where two headings read alike, the source gives them in different places.

Legend:
[1] = molecular target: HA-GST-Rheb (GTP-γ-S loaded) activating mTORC1 (Homo sapiens (Human), UniProt Q15382); test: Rheb-dependent in vitro kinase assay (Rheb-IVK; LanthaScreen or Western readout); type: biochemical
Rheb = Rheb (Homo sapiens (Human), UniProt Q15382); test: Affinity Selection Mass Spectrometry (ASMS); type: binding; conditions: affinity (R3/R0) in Affinity Selection Mass Spectrometry assay
Procedure, shortened: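 Affinity selection used 2 μM compound with 60 μM Rheb and 180 μM GDP for 30 min at room temperature. After 10 kDa ultrafiltration washes, protein was denatured in MeCN and bound compound quantified by C18 UPLC with Q-TOF MS, against a no-protein control.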

[2] = Rheb-dependent in vitro kinase assay, read-out: IVK IC50

Rheb, sequence (Q15382 1-169 limits assumed): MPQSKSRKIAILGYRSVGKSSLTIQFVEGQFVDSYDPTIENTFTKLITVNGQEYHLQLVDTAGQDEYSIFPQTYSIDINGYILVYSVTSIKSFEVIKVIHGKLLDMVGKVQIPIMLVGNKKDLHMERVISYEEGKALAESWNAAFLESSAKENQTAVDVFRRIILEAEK
HA-GST-Rheb (GTP-γ-S loaded) activating mTORC1, sequence (Q15382 1-181): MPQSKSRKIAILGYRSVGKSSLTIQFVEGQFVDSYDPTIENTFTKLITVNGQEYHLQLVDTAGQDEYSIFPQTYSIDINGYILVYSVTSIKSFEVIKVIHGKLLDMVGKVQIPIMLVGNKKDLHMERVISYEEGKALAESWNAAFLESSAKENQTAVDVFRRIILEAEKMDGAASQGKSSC

OCc1nc2c(OCC3CCC(O)CC3)c(Cl)c(Cl)cc2[nH]1 (stereo not shown) [I-399, 4-((5,6-dichloro-2-(hydroxymethyl)-1H-benzo[d]imidazol-4-yloxy)methyl)cyclohexanol]
IC50 [1, 2]: 10 to 100 µM
ASMS (R3/R0) (Rheb): C (an affinity (R3/R0)<20%)

O=C(O)c1cc2c(Oc3cc(Cl)ccc3Cl)cc(Cl)cc2[nH]1 [I-172, 6-Chloro-4-(2,5-dichlorophenoxy)-1H-indole-2-carboxylic acid]
IC50 [1, 2]: 10 to 100 µM
ASMS (R3/R0) (Rheb): B (an affinity (R3/R0) between 100% and 20%)

Clc1cc2nc(-c3ccc(-c4ccncc4)cc3)[nH]c2cc1Cl [I-372]
IC50 [1, 2]: > 100 µM
ASMS (R3/R0) (Rheb): A (an affinity (R3/R0)>100%)

Clc1ccc(Sc2cccc3[nH]ccc23)c(Cl)c1 [I-212]
IC50 [1, 2]: > 3 µM
ASMS (R3/R0) (Rheb): B (an affinity (R3/R0) between 100% and 20%)

CC(C)(C)OC(=O)c1ccc(Cn2c(C(=O)O)cc3c(Cl)cc(Sc4ccc(Cl)c(Cl)c4)cc32)cc1 [I-95, 1-(4-(tert-butoxycarbonyl)benzyl)-4-chloro-6-(3,4-dichlorophenylthio)-1H-indole-2-carboxylic acid]
IC50 [1, 2]: 10 to 100 µM
ASMS (R3/R0) (Rheb): B (an affinity (R3/R0) between 100% and 20%)

O=C(O)c1ccc(CCn2c(-c3ccnc4[nH]ccc34)nc3cc(Cl)c(Cl)cc32)cc1 [I-331, 4-(2-(5,6-dichloro-2-(1H-pyrrolo[2,3-b]pyridin-4-yl)-1H-benzo[d]imidazol-1-yl)ethyl)benzoic acid]
IC50 [1, 2]: 10 to 100 µM
ASMS (R3/R0) (Rheb): B (an affinity (R3/R0) between 100% and 20%)

OCc1cc2c(Br)cc(Sc3ccc(Cl)c(Cl)c3)cc2[nH]1 [I-133, (4-bromo-6-(3,4-dichlorophenylthio)-1H-indol-2-yl)methanol]
IC50 [1, 2]: < 10 µM
ASMS (R3/R0) (Rheb): B (an affinity (R3/R0) between 100% and 20%)

CC(C)(C)OC(=O)c1ccc(Cn2ccc3c(Br)cc(Oc4ccccc4)cc32)cc1 [I-163]
IC50 [1, 2]: > 100 µM
ASMS (R3/R0) (Rheb): C (an affinity (R3/R0)<20%)

O=C(O)c1cc2c(Sc3cccc(OC(F)(F)F)c3)cc(Cl)cc2[nH]1 [I-126, 6-chloro-4-(3-(trifluoromethoxy)phenylthio)-1H-indole-2-carboxylic acid]
IC50 [1, 2]: 10 to 100 µM
ASMS (R3/R0) (Rheb): B (an affinity (R3/R0) between 100% and 20%)

CN1CCCN(c2ccc(NC(=O)c3cc4c(Sc5ccc(Cl)cc5Cl)cc(Cl)cc4[nH]3)cc2F)CC1 [I-93, 6-chloro-4-(2,4-dichlorophenylthio)-N-(3-fluoro-4-(4-methyl-1,4-diazepan-1-yl)phenyl)-1H-indole-2-carboxamide]
IC50 [1, 2]: < 10 µM
ASMS (R3/R0) (Rheb): A (an affinity (R3/R0)>100%)

Cn1ccc2c(Nc3ccccc3)cccc21 [I-299]
IC50 [1, 2]: > 100 µM
ASMS (R3/R0) (Rheb): C (an affinity (R3/R0)<20%)

c1ccc(Oc2cccc3[nH]ccc23)cc1 [I-296, 4-phenoxy-1H-indole]
IC50 [1, 2]: 100 to 300 µM
ASMS (R3/R0) (Rheb): C (an affinity (R3/R0)<20%)

O=C(O)c1ccc(CCn2c(-c3c[nH]c4ncccc34)nc3cc(Cl)c(Cl)cc32)cc1 [I-335, 4-(2-(5,6-dichloro-2-(1H-pyrrolo[2,3-b]pyridin-3-yl)-1H-benzo[d]imidazol-1-yl)ethyl)benzoic acid]
IC50 [1, 2]: 100 to 300 µM
ASMS (R3/R0) (Rheb): B (an affinity (R3/R0) between 100% and 20%)

O=C(O)c1cc2c(Sc3ccc(Cl)cc3Cl)cc(Cl)cc2n1Cc1ccc(-c2cccc(CO)c2)cc1 [I-72, 6-chloro-4-(2,4-dichlorophenylthio)-1-((3′-(hydroxymethyl)biphenyl-4-yl)methyl)-1H-indole-2-carboxylic acid]
IC50 [1, 2]: < 10 µM
ASMS (R3/R0) (Rheb): B (an affinity (R3/R0) between 100% and 20%)

CN(C)C(=O)c1ccc(Cn2c(C(=O)O)cc3c4ccccc4c(Sc4ccc(Cl)c(Cl)c4)cc32)cc1 [I-9, 5-(3,4-dichlorophenylthio)-3-(4-(dimethylcarbamoyl)benzyl)-3H-benzo[e]indole-2-carboxylic acid]
IC50 [1, 2]: < 10 µM
ASMS (R3/R0) (Rheb): A (an affinity (R3/R0)>100%)

OCc1cc2c(Br)cc(Sc3ccccc3)cc2[nH]1 [I-237, (4-bromo-6-(phenylthio)-1H-indol-2-yl)methanol]
IC50 [1, 2]: 10 to 100 µM
ASMS (R3/R0) (Rheb): B (an affinity (R3/R0) between 100% and 20%)

7-chloro-6-(3,4-dichlorophenylthio)-4-fluoro-1H-indole-2-carboxylic acid [I-66]
IC50 [1, 2]: < 10 µM
ASMS (R3/R0) (Rheb): B (an affinity (R3/R0) between 100% and 20%)

CN(C)C(=O)c1ccc(Cn2c(C(=O)O)cc3c(-c4ccccc4)cc(Sc4ccc(Cl)c(Cl)c4)cc32)cc1 [I-8, 6-(3,4-dichlorophenylthio)-1-(4-(dimethylcarbamoyl)benzyl)-4-phenyl-1H-indole-2-carboxylic acid]
IC50 [1, 2]: < 10 µM
ASMS (R3/R0) (Rheb): A (an affinity (R3/R0)>100%)

O=C(Nc1ccc(N2CCN(Cc3ccccc3)CC2)c(F)c1)c1cc2c(Sc3ccc(Cl)cc3Cl)cc(Cl)cc2[nH]1 [I-91, N-(4-(4-benzylpiperazin-1-yl)-3-fluorophenyl)-6-chloro-4-(2,4-dichlorophenylthio)-1H-indole-2-carboxamide]
IC50 [1, 2]: 10 to 100 µM
ASMS (R3/R0) (Rheb): B (an affinity (R3/R0) between 100% and 20%)

OCc1cc2c(Sc3cccc(OC(F)(F)F)c3)cc(Cl)cc2[nH]1 [I-122, (6-chloro-4-(3-(trifluoromethoxy)phenylthio)-1H-indol-2-yl)methanol]
IC50 [1, 2]: < 10 µM
ASMS (R3/R0) (Rheb): B (an affinity (R3/R0) between 100% and 20%)

O=C(O)c1cc2c(Br)cc(Oc3ccccc3)cc2n1Cc1ccc(C(=O)N(CCO)CCO)cc1 [I-67, 1-(4-(bis(2-hydroxyethyl)carbamoyl)benzyl)-4-bromo-6-phenoxy-1H-indole-2-carboxylic acid]
IC50 [1, 2]: 10 to 100 µM
ASMS (R3/R0) (Rheb): C (an affinity (R3/R0)<20%)

OCc1cc2c(Br)cc(OCCCc3ccccc3)cc2[nH]1 [I-235, (4-Bromo-6-(3-phenylpropoxy)-1H-indol-2-yl)methanol]
IC50 [1, 2]: 10 to 100 µM
ASMS (R3/R0) (Rheb): B (an affinity (R3/R0) between 100% and 20%)

NC(=O)CCc1cc2c(Oc3ccccc3)c(Cl)ccc2[nH]1 [I-247, 3-(5-chloro-4-phenoxy-1H-indol-2-yl)propanamide]
IC50 [1, 2]: 10 to 100 µM
ASMS (R3/R0) (Rheb): C (an affinity (R3/R0)<20%)

OCc1nc2c(OC[C@H]3CNCC[C@@H]3O)c(Cl)c(Cl)cc2[nH]1 (racemic) [I-385]
IC50 [1, 2]: > 100 µM
ASMS (R3/R0) (Rheb): C (an affinity (R3/R0)<20%)

O=C(O)c1cc2c(SCc3ccc(Cl)cc3)cc(SCc3ccc(Cl)cc3)cc2[nH]1 [I-94, 4,6-bis(4-chlorobenzylthio)-1H-indole-2-carboxylic acid]
IC50 [1, 2]: < 10 µM
ASMS (R3/R0) (Rheb): B (an affinity (R3/R0) between 100% and 20%)

CN1CCN(C(=O)c2ccc(Cn3c(C(=O)O)cc4c(Br)cc(Oc5ccccc5)cc43)cc2)CC1 [I-68]
IC50 [1, 2]: > 3 µM
ASMS (R3/R0) (Rheb): C (an affinity (R3/R0)<20%)

CN1CCN(c2cccc(NC(=O)c3cc4c(Sc5ccc(Cl)cc5Cl)cc(Cl)c(Cl)c4[nH]3)c2)CC1 [I-33, 6,7-dichloro-4-(2,4-dichlorophenylthio)-N-(3-(4-methylpiperazin-1-yl)phenyl)-1H-indole-2-carboxamide]
IC50 [1, 2]: < 10 µM
ASMS (R3/R0) (Rheb): A (an affinity (R3/R0)>100%)

CN(C)C(=O)c1ccc(Cn2c(C(=O)O)cc3c(C#N)cc(Sc4ccc(Cl)c(Cl)c4)cc32)cc1 [I-7, 4-cyano-6-(3,4-dichlorophenylthio)-1-(4-(dimethylcarbamoyl)benzyl)-1H-indole-2-carboxylic acid]
IC50 [1, 2]: < 10 µM
ASMS (R3/R0) (Rheb): B (an affinity (R3/R0) between 100% and 20%)

O=C(O)c1cc2c(Sc3ccc(Cl)c(Cl)c3)cc(Sc3ccc(Cl)c(Cl)c3)cc2[nH]1 [I-88, 4,6-bis(3,4-dichlorophenylthio)-1H-indole-2-carboxylic acid]
IC50 [1, 2]: < 10 µM
ASMS (R3/R0) (Rheb): B (an affinity (R3/R0) between 100% and 20%)

O=C(O)c1cc2c(Sc3ccc(F)c(F)c3)cc(Cl)cc2[nH]1 [I-155, 6-chloro-4-(3,4-difluorophenylthio)-1H-indole-2-carboxylic acid]
IC50 [1, 2]: 10 to 100 µM
ASMS (R3/R0) (Rheb): B (an affinity (R3/R0) between 100% and 20%)

OCc1cc2c(Oc3ccccc3)c(Cl)ccc2[nH]1 [I-293, (5-chloro-4-phenoxy-1H-indol-2-yl)methanol]
IC50 ([1]; LanthaScreen variation, Terbium labeled T46p4E-BP1 specific antibody, read-out: IC50 in the Rheb-IVK): ~83.8 µM
IC50 [1, 2]: 100 to 300 µM
inhibition of mTORC1 activity in the Rheb-IVK ([1]; Western blot variation, anti 4E-BP1 and anti T37/46p4E-BP1): capable of inhibiting mTORC1 activity
ASMS (R3/R0) (Rheb): C (an affinity (R3/R0)<20%)

OCc1nc2c(Sc3ccc(Cl)cc3Cl)c(Cl)c(Cl)cc2[nH]1 [I-371, (5,6-dichloro-4-(2,4-dichlorophenylthio)-1H-benzo[d]imidazol-2-yl)methanol]
IC50 [1, 2]: 10 to 100 µM
ASMS (R3/R0) (Rheb): B (an affinity (R3/R0) between 100% and 20%)

CN(C)C(=O)c1ccc(Cn2c(C(=O)O)cc3c(Br)cc(SCC4CCCCC4)cc32)cc1 [I-24, 4-bromo-6-(cyclohexylmethylthio)-1-(4-(dimethylcarbamoyl)benzyl)-1H-indole-2-carboxylic acid]
IC50 [1, 2]: < 10 µM
ASMS (R3/R0) (Rheb): B (an affinity (R3/R0) between 100% and 20%)

Clc1cc2nc(-c3ccnc(N4CCNCC4)c3)[nH]c2cc1Cl [I-346]
IC50 [1, 2]: > 100 µM
ASMS (R3/R0) (Rheb): A (an affinity (R3/R0)>100%)

4-bromo-6-(3,4-dichlorophenylthio)-1-(4-((2-hydroxyethyl)(methyl)carbamoyl)benzyl)-1H-indole-2-carboxylic acid [I-51]
IC50 [1, 2]: < 10 µM
ASMS (R3/R0) (Rheb): B (an affinity (R3/R0) between 100% and 20%)

Nc1ccc(-c2ccc(Cn3c(C(=O)O)cc4c(Sc5ccc(Cl)cc5Cl)cc(Cl)cc43)cc2)cc1 [I-78, 1-((4′-aminobiphenyl-4-yl)methyl)-6-chloro-4-(2,4-dichlorophenylthio)-1H-indole-2-carboxylic acid]
IC50 [1, 2]: < 10 µM
ASMS (R3/R0) (Rheb): B (an affinity (R3/R0) between 100% and 20%)

CN1CC(NC(=O)c2cc3c(Sc4ccc(Cl)cc4Cl)cc(Cl)c(Cl)c3[nH]2)C1 [I-21]
IC50 [1, 2]: > 100 µM
ASMS (R3/R0) (Rheb): C (an affinity (R3/R0)<20%)
